Reference: ChEMBL document CHEMBL5212743, “Selectivity Literature for EUbOPEN Chemogenomics Library wave 3” (2023)

How the values were obtained:
[1] = target: Mitogen-activated protein kinase 3 (Homo sapiens, UniProt P27361); test: Selectivity interaction (MSD Pharma/Taiwan screen (enzymes and receptors) ) EUB0000296b MAPK3
[2] = target: Dual specificity tyrosine-phosphorylation-regulated kinase 1B (Homo sapiens, UniProt Q9Y463); test: Selectivity interaction (KinomeScan (DiscoverX)) EUB0000296b DYRK1B; conditions: at 1 µM
Sequence of Dual specificity tyrosine-phosphorylation-regulated kinase 1B (Q9Y463 whole entry, looked up): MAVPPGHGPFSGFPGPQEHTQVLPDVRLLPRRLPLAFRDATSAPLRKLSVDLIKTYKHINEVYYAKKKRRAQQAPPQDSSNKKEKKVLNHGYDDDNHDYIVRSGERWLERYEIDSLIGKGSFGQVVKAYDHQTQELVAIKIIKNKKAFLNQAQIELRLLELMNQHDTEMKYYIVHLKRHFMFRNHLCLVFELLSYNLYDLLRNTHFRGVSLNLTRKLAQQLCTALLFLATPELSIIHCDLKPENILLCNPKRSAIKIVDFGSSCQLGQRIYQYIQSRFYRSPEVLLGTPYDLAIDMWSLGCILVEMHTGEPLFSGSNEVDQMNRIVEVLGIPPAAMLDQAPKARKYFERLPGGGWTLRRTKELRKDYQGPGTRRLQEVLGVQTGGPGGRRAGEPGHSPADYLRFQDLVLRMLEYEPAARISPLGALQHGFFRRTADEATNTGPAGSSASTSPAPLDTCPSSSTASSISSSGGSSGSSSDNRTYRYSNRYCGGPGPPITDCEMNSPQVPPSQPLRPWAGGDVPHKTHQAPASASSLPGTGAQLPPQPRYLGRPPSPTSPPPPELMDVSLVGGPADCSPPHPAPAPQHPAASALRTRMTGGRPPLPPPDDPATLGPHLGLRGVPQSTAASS

[3] = target: Polyunsaturated fatty acid 5-lipoxygenase (Homo sapiens, UniProt P09917); test: Selectivity interaction (MSD Pharma/Taiwan screen (enzymes and receptors) ) EUB0000296b ALOX5
Sequence of Polyunsaturated fatty acid 5-lipoxygenase (P09917 whole entry): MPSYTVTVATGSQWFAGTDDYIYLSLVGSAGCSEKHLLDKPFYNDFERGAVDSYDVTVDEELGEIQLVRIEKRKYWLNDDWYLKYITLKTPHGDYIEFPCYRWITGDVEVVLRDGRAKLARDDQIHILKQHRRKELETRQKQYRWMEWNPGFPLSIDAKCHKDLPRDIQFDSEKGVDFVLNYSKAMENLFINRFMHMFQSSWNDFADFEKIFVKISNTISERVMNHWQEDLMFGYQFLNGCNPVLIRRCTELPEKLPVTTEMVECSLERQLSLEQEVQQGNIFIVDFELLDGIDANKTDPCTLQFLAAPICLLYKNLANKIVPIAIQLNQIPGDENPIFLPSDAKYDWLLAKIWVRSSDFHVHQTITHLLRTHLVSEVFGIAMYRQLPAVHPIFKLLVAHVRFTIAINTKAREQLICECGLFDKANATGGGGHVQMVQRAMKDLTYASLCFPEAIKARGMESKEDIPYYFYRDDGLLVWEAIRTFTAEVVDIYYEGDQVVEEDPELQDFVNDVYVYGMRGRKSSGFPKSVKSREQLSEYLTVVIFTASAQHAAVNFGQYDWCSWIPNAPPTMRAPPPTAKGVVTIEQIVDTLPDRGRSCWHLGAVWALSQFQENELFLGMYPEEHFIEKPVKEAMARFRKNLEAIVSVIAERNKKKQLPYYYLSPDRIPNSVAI

[4] = target: T1, Alpha-2C adrenergic receptor (Homo sapiens, UniProt P18825); test: Selectivity interaction (Radioligand binding assay (MDS Pharma Service)) EUB0000296b ADRA2C
T1 sequence (P18825 whole entry): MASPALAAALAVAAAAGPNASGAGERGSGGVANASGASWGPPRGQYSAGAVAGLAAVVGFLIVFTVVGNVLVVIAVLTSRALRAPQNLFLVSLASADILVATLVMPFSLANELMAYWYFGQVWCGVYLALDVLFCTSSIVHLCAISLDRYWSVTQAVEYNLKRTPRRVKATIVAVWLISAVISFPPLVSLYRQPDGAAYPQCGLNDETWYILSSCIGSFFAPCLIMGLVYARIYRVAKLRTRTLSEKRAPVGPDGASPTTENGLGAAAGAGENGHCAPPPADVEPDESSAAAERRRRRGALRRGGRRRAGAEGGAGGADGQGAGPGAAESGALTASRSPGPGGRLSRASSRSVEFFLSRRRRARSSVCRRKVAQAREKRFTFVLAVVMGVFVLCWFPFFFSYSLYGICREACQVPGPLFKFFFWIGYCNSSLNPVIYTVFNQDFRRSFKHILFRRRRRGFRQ

[5] = target: eIF-2-alpha kinase GCN2 (Homo sapiens) (UniProt Q9P2K8); test: Selectivity interaction (KinomeScan (DiscoverX)) EUB0000296b EIF2AK4; conditions: at 1 µM
[6] = target: T2, Gamma-aminobutyric acid receptor subunit alpha-1 (Homo sapiens, UniProt P14867); test: Selectivity interaction (GPCR panel (PDSP screen)) EUB0000296b GABRA1
T2 sequence (P14867 whole entry): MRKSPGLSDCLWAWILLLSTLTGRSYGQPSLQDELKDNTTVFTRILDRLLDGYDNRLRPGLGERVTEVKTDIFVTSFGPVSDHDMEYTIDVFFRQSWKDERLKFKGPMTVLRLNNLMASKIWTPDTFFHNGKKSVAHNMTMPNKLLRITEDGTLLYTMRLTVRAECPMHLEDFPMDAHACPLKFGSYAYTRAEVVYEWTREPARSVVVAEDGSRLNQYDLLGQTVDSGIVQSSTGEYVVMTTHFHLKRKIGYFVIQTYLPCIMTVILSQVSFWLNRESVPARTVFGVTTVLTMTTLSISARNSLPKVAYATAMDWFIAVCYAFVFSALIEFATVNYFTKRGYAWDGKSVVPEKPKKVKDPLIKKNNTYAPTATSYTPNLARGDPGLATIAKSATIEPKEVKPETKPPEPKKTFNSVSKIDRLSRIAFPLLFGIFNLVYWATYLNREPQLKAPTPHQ

[7] = target: Phosphatidylinositol 4-phosphate 3-kinase C2 domain-containing subunit beta (Homo sapiens) (UniProt O00750); test: Selectivity interaction (KinomeScan (DiscoverX)) EUB0000296b PIK3C2B; conditions: at 1 µM
Sequence of Phosphatidylinositol 4-phosphate 3-kinase C2 domain-containing subunit beta (Homo sapiens) (O00750 whole entry, the tested form may be a part): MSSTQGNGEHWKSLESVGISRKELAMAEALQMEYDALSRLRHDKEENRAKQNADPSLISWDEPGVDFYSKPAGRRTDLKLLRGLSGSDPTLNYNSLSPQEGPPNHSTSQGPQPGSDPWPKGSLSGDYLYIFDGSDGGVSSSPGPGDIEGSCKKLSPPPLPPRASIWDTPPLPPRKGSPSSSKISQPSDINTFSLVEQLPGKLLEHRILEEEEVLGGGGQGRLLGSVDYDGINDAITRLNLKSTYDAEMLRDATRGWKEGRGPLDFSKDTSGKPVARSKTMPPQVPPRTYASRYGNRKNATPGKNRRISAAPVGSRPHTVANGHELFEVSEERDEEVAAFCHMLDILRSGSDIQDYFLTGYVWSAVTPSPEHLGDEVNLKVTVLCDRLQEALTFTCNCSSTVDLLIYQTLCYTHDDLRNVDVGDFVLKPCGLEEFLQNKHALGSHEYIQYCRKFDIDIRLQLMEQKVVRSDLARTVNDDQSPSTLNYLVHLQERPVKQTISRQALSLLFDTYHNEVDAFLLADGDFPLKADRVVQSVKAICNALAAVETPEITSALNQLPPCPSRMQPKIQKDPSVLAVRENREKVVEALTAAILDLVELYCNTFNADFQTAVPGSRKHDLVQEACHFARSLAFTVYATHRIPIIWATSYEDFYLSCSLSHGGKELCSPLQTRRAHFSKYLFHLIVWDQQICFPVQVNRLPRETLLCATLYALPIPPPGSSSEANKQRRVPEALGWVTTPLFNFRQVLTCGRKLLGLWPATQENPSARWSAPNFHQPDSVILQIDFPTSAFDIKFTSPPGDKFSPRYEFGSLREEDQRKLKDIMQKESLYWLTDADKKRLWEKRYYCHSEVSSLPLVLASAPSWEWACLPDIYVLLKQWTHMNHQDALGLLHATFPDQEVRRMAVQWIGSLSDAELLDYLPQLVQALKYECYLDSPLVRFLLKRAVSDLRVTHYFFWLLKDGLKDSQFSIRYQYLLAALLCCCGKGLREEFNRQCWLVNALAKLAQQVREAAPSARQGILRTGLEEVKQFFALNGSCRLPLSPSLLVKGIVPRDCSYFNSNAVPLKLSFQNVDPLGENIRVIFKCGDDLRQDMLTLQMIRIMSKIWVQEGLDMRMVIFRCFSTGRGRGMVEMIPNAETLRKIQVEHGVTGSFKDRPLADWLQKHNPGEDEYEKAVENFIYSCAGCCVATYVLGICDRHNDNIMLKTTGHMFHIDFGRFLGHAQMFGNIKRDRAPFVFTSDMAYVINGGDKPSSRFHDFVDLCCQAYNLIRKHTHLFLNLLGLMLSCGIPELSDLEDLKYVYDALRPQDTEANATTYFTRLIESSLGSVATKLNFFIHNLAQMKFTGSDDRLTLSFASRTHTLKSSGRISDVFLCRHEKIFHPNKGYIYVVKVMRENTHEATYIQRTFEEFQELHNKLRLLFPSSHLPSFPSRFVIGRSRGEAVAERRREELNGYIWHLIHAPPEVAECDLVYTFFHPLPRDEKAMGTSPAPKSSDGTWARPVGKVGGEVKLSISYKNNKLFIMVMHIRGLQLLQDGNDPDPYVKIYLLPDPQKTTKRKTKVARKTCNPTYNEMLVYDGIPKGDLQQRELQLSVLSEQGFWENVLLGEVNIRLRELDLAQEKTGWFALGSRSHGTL

[8] = target: Protein kinase C epsilon type (Homo sapiens) (UniProt Q02156); test: Selectivity interaction (KinomeScan (DiscoverX)) EUB0000296b PRKCE; conditions: at 1 µM
Sequence of Protein kinase C epsilon type (Homo sapiens) (Q02156 whole entry): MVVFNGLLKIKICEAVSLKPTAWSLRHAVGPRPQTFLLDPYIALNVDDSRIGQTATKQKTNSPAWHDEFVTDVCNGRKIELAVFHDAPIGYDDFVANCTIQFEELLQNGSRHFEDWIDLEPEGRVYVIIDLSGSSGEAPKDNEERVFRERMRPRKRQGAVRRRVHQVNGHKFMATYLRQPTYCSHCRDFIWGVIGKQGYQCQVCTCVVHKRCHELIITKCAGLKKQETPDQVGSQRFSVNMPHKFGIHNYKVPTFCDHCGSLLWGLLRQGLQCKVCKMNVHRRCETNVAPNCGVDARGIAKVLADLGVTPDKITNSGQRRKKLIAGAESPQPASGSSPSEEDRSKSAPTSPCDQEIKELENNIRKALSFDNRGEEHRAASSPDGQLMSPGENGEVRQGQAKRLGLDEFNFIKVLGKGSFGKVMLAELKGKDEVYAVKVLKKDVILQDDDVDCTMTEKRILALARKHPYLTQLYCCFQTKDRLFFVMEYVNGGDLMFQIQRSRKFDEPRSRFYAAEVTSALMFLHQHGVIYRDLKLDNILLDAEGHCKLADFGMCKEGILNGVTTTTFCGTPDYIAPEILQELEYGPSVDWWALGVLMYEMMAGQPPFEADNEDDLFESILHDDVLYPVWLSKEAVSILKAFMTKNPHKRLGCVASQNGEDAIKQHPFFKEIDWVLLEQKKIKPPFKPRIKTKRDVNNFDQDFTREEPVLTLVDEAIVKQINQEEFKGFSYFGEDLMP

[9] = target: Sodium-dependent dopamine transporter (Homo sapiens, UniProt Q01959); test: Selectivity interaction (Radioligand binding assay (MDS Pharma Service)) EUB0000296b SLC6A3
[10] = target: Epidermal growth factor receptor (Homo sapiens, UniProt P00533); test: Selectivity interaction (MSD Pharma/Taiwan screen (enzymes and receptors) ) EUB0000296b EGFR
[11] = target: Serine/threonine-protein kinase STK11 (Homo sapiens) (UniProt Q15831); test: Selectivity interaction (KinomeScan (DiscoverX)) EUB0000296b STK11; conditions: at 1 µM
Sequence of Serine/threonine-protein kinase STK11 (Homo sapiens) (Q15831 whole entry): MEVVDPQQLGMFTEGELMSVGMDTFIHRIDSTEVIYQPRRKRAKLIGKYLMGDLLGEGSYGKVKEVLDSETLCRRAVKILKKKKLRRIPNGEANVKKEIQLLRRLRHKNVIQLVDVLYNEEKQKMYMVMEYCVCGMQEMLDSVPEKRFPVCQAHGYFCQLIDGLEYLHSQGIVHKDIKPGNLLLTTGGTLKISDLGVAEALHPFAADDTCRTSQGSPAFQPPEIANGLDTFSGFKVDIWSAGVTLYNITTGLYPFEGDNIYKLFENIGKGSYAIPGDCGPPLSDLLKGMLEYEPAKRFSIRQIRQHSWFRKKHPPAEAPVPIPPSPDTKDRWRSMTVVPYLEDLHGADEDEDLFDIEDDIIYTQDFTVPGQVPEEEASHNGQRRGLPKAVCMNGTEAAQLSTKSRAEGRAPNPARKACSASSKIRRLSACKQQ

[12] = target: Mitogen-activated protein kinase 14 (Homo sapiens, UniProt Q16539); test: Selectivity interaction (MSD Pharma/Taiwan screen (enzymes and receptors) ) EUB0000296b MAPK14
Sequence of Mitogen-activated protein kinase 14 (Q16539 whole entry): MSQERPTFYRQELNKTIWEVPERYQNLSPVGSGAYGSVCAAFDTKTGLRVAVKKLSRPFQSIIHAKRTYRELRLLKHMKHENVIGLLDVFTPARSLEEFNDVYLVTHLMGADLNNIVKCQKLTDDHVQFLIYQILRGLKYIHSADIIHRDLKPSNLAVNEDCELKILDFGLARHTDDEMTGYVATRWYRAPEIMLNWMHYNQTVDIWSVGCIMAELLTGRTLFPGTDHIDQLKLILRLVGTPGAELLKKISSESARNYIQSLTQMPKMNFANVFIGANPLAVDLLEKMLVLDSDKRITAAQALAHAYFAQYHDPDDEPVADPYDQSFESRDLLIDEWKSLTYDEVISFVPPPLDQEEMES

Adenosine receptor A3 = target: T3, Adenosine receptor A3 (Homo sapiens, UniProt P0DMS8); test: Selectivity interaction (Radioligand binding assay (MDS Pharma Service)) EUB0000296b ADORA3
T3 sequence (P0DMS8 whole entry): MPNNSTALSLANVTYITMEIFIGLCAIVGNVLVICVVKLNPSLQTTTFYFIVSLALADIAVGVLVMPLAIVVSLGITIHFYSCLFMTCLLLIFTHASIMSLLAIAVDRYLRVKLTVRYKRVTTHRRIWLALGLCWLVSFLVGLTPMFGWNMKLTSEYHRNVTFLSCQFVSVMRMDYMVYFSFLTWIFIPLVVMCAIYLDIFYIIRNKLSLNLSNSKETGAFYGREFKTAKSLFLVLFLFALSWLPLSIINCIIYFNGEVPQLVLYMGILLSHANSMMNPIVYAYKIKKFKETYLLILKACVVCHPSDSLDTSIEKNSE

[13] = target: Synaptic vesicular amine transporter (Homo sapiens, UniProt Q05940); test: Selectivity interaction (Radioligand binding assay (MDS Pharma Service)) EUB0000296b SLC18A2

Sequence of Mitogen-activated protein kinase 3 (P27361 whole entry): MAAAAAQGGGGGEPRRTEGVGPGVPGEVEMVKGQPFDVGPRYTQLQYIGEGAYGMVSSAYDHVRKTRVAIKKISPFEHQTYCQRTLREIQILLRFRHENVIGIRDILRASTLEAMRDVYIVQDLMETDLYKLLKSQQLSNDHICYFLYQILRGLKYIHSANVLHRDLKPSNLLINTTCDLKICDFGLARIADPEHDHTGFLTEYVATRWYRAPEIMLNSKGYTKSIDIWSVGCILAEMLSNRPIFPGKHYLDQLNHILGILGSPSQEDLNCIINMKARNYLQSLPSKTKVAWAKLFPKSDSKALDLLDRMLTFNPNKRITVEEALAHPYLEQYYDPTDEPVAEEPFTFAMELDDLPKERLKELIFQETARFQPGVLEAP

For `CC(=O)Nc1c(C(C)=O)c(=O)n(C)c2nc(-c3ccc(Cl)cc3Cl)c(-c3ccc(Cl)cc3)cc12` [NAPHTHYRIDINONE], the IC50 [1] was 8610 nM, the % of control [2] was 35% and the IC50 [3] was 1340 nM. The Ki [4] was 1130 nM, the % of control [5] was 48% and the Ki [6] was 82 nM. For the same molecule, the % of control [7] was 48%, the % of control [8] was 48% and the Ki [9] was 799 nM. It also gave an IC50 [10] of 3260 nM, a % of control [11] of 43% and an IC50 [12] of 3680 nM. For the same molecule, the Ki (Adenosine receptor A3) was 773 nM and the Ki [13] was 648 nM.
